# Source: US20120003298A1, “METHODS FOR INDUCING AN IMMUNE RESPONSE” (priority 2010, published 2012)
# Like-named read-outs stand apart in the source and are kept apart here.
# Assays:
# [1] = Solubility observations in the text; conditions: methanol, ethanol, dichloromethane, ethyl acetate, acetonitrile, acetone, chloroform
# [2] = Solubility, method of the European Pharmacopoeia 6.0; format: physicochemical
# Method: The method reported in the European Pharmacopoeia 6.0 was used.
# Batch CH730/16/8g was tested according to the method described in E. Ph: DMSO was added in 0.1 mL portions to 103.7 mg of product and the suspension was shaken with a Vortex instrument for 3 min after each addition.
# The batches CH730/16/8c, CH730/16/8g and CH730/23/8e were then tested stirring each suspension for a longer time; 100 mg of each batch dissolved completely in 0.2 mL of DMSO after stirring for 30 minutes.
# [3] = test system: mouse macrophage cell line Raw264.7; test: IL-6 and TNF-alpha secretion in Raw264.7 cells (Model 1), ELISA; format: cell-based; conditions: for EC50: Raw 264.7, 24 hours, 7 doses
# PBMCs = test: IL-6 and TNF-alpha secretion in PBMC model (Model 2), ELISA; format: cell-based, human; conditions: Homo sapiens, PBMC
# [4] = Metabolic profiling in rabbit plasma, LC/MS/MS; format: in vitro ADME
# Method: (§1) Before the analysis of the incubated samples, compound A was infused manually to understand parent fragmentation. Infusion was performed by diluting a 50 mM solution in DMSO to 1 μM with ACN/MeOH 1/1. Sample solution was infused into the ion trap source at a flow rate of 4 μl/min.
# (§2) Incubated samples were analyzed on a HPLC (Waters) interfaced with an Ion Trap HCT ultra (Bruker Daltonics).
# (§3) Assignment of the structures was done by comparison of the MS/MS analysis of the spectra with the parent spectrum.
# (§4) Metabolic profiling was studied in rabbit and human plasma. In both matrixes the parent compound (50 uM starting concentration) was totally metabolized at the last time point. Metabolites were detected in Full scan and peaks were assigned by MH+ and MS/MS spectra.
# [5] = Metabolic profiling in human plasma, LC/MS/MS; format: in vitro ADME
# Method: as §1, §2, §3, §4
# human whole blood = test: Cytokine secretion in human whole blood assay, ELISA; format: cell-based; conditions: Homo sapiens
# Method: Before drawing the blood, the compounds were added to 96 well round bottom plates in a 10× diluted sample at 20 ul. The compounds were diluted in RPMI media without serum but with antibiotics. Antibiotics were added at a 10× concentration. After drawing the blood, the whole blood sample was gently mixed to obtain a homogeneous sample, and 180 ul was added to each well.
# All compounds were setup in concentrations at 0-0.01-0.03-0.1-0.5-2.0-10.0 micromolar as the final concentration. Vehicle control was DMSO control, where we used the highest concentration used for the compounds. After addition of blood, all plates were gently agitated at 37° C. and 5% CO2 until harvest.
# For the 6 hours time point, the plate was centrifuged 500×g. Supernatant (SN) was transferred to a tube and centrifuged at 10.000×g for 10 min to get rid of cells and protein aggregates. The clarified supernatant was frozen at −80° C. until analysis.
# The SN was removed to another tube and centrifuged at 10.000×g for 10 min. to get rid of aggregates etc. The clarified supernatant was frozen at −80° C. until analysis.
# Concentrations of cytokines were determined by ELISA from R&D Systems. The results were analyzed in Graph Pad Prism in order to prepare dose-response
# curves, and for determination of EC50 values. FACS analysis was made by using Becton-Dickinson FACSDiva software and subsequently illustrated in Graph Pad Prism.
# [6] = test system: recombinant antigens from Plasmodium falciparum and Mycobacterium ulcerans; test: Pilot immunization study with adjuvanted recombinant protein antigens; format: in vivo, mouse; conditions: subcutaneous, 10 nMol
# Method: A pilot immunization study was conducted using Compound A and SC12 adjuvanted protein antigens. The immunization experiments were performed with two recombinant proteins expressed in E. coli. One antigen was derived from the malaria parasite Plasmodium falciparum and the other one from Mycobacterium ulcerans, which cause the ulcerative skin disease Buruli ulcer.
# RAW.264 cells = test: Intracellular uptake in RAW.264 cells, LC-MS; format: in vitro ADME; conditions: 10 microM
# Method: 5×10^6 RAW.264 cells were adhered overnight in 10 cm tissue culture dishes. […] […] Supernatant (2 ml) and cells (pellets) were collected by trypsinization and frozen at […] for subsequent analysis by LC-MS.
# [7] = Stability on storage by HPLC (solid or chloroform solution; temperature, light)
# Method: At this point, a stability study was conducted on batch CH730/16/8g.
# The samples were analyzed at t=0 and after 20 days.
# human PBMCs = test: IL-6 secretion in human PBMCs, two batches of Compound A and SC12 (Example 4); format: cell-based; conditions: PBMCs, 10-1-0.1-0.01 micromolar
# Method: PBMCs were purified from two donors and plated into 96 well plates at 2×10^5 cells/well in RPMI media including human 2% heat inactivated AB serum, glutamine, Pen-strep and β-mercaptoethanol. The cells were treated with TLR7 agonists for 24 h in 4 doses. The conditioned media was removed for ELISA analyses for IL-6, and the EC50 value determined for each compound and each batch.
# All compounds were tested in four concentrations (10-1-0.1-0.01 micromolar).
# Concentrations of IL-6 were determined by ELISA from R&D Systems using the Microsoft Excel software. The results were analyzed in Graph Pad Prism in order to prepare dose-response curves, and for determination of EC50 values.
# HLA-DR+/CD20+ B cells = test: FACS, B cell activation in whole blood; format: cell-based, human; conditions: 24 hours; 2 and 10 uM
# Method: B-cells: HLA-DR/CD20/CD40
# The FACS staining was performed according to the manufacturer's instructions. Lysis of red blood cells was performed before FACS staining in order to minimize auto-florescence. To include as many B cells and DCs in the study as possible the FACS analyses were performed on 500,000 cells in total for each staining. […] The results of the individual analysis were present as Mean Fluorescence Intensity (MFI) values, for certain activation marker in a given gate setting, represent the actual cell subset. The isotype background values have been used to set the gates so that a maximum at 2% of unspecific stained cells could be found in the positive gates.
# The analysis of expression of the activation marker CD40 on B cells was made on double positive HLA-DR (MHC class II) (P4 gate) and CD20 cells (B cell marker) (P8 gate).
# [8] = test system: myeloid CD11c+/CD123− DCs; test: FACS, myeloid DC activation in whole blood; format: cell-based, human; conditions: 24 hours; 0.1 and 0.5 uM
# Method: The FACS analysis for donor 1 and donor 2 was made on another day than donor 3. The compound concentrations were as follows:
# B cell activation: 2 and 10 uM mDC/pDC: 0.1 and 0.5 uM
# The FACS analysis was used to identify whether the test compounds could induce activation of B cells, and two different subsets of dendritic cells, namely the myeloid CD11c+/CD123− DCs and the plasmacytoid CD11c−/CD123+DCs. The following markers were studied to identify the activation status of the different subsets:
# The FACS staining was performed according to the manufacturer's instructions. Lysis of red blood cells was performed before FACS staining in order to minimize auto-florescence. To include as many B cells and DCs in the study as possible the FACS analyses were performed on 500,000 cells in total for each staining. A P1 gate was set only to include relevant cells on FSC vs. SSC (see FIGS. 12-15). The results of the individual analysis were present as Mean Fluorescence Intensity (MFI) values, for certain activation marker in a given gate setting, represent the actual cell subset. The isotype background values have been used to set the gates so that a maximum at 2% of unspecific stained cells could be found in the positive gates.
# The analysis of myeloid DCs was based on HLA-DR+/CD11c+/CD123-cells, thus all analyzed cells was included in the HLA-DR+(P3) gate and CD11c+/CD123− (Q4) gate (see gates in FIGS. 13-15).
# [9] = Intrabladder application, serum cytokines (Luminex) and histology; format: in vivo, mouse; conditions: day 0, 2 hour time point; intravesical about 207 nmoles in 50 μl
# Method: Female C57BU6 mice were anesthetized with ketamine/xylazine. The 50 microliter formulated compounds were intravesically administered for twenty minutes at each treatment. The treatment schedule and doses are in Table 35 and 36, respectively. The levels of cytokines (IL-6, IL-12, and TNF-alpha) were determined by Luminex assay. Paraffin sections were prepared and H & E staining performed.
# MB49 cells = test: Mouse bladder cancer model, intravesical treatment (Experiment 24); format: in vivo; conditions: Experiment 1; in Phosal 50, 50 microliters, 20 minutes; 2 h and 24 h
# Method: A set of experiments was conducted with SC12 in various solutions, in a mouse bladder cancer model.
# 7-9 week old C57BU6 mice were implanted with 1×10^6 MB49 cells after 0.1% poly L lysine treatment on day 0. […] On day 11, mice were sacrificed and organs were harvested.
# [10] = test system: Cutaneous Squamous Cell Carcinoma (SCC) cell lines SCL-I, SCL-II, SCC-12, SCC-13; conditions: FIG. 11
# Method: SCC cells are grown under standard conditions (10% FBS).
# Time and dose dependency of effects on total cell numbers have been investigated by real-time cell analysis, which is based on continuous monitoring of electric conductance in microtiter wells (E-plates, Roche), which corresponds to the cell numbers. […] For these assays 4 cell lines may be used to obtain a representative overview on the effects on SCC cells.
# [11] = test system: AY-27 rat bladder cancer cell-line; test: Orthotopic rat bladder cancer model, intravesical instillation
compound,measurement,setting,value
"COCCOc1nc(N)c2[nH]c(=O)n(Cc3ccc(C(=O)O)cc3)c2n1 [Compound 7, 4-((6-amino-2-(2-methoxyethoxy)-8-oxo-7H-purin-9(8H)-yl)methyl)benzoic acid]",solubility in common solvents,[1],not soluble in most of the common solvents
"CCCCCCCC/C=C\CCCCCCCC(=O)OCC(COP(=O)(O)OCCNC(=O)c1ccc(Cn2c(=O)[nH]c3c(N)nc(OCCOC)nc32)cc1)OC(=O)CCCCCCC/C=C\CCCCCCCC (centres unmarked) [Compound A, 2-(4-((6-amino-2-(2-methoxyethoxy)-8-oxo-7H-purin-9(8H)-yl)methyl)benzamido)ethyl 2,3-bis(oleoyloxy)propyl phosphate]",solubility in DMSO,[2],soluble
same,solubility,"[2]; chloroform, organic solvent or mixture, thermodynamic from solid",100 mg/mL
same,solubility at 3 min,"[2]; organic solvent or mixture, thermodynamic from solid, batch Ch730/16/8g, DMSO added in 0.1 mL portions, Vortex 3 min after each addition",259 mg/mL
same,solubility at 30 min,"[2]; organic solvent or mixture, thermodynamic from solid, three batches, 100 mg in 0.2 mL of DMSO after stirring for 30 minutes",500 mg/mL
same,EC50,"[3]; Mus musculus, RAW264.7, read-out: EC 50 IL 6",0.006 µM
same,EC50,"[3]; Mus musculus, RAW264.7, read-out: EC 50 TNF-alpha",0.009 µM
same,EC50,"PBMCs; 24 hours, read-out: TNF-alpha secretion, Donor 1 MC50",0.644 µM
same,EC50,"PBMCs; 24 hours, read-out: TNF-alpha secretion, Donor 2 MC50",0.665 µM
same,EC50,"PBMCs; 24 hours, read-out: TNF-alpha secretion, Donor 3 MC50",0.639 µM
same,EC50,"PBMCs; average of three donors, read-out: IL-6 secretion, Average EC50",0.485 µM
same,EC50,"PBMCs; average of three donors, read-out: TNF-alpha secretion, Average EC50",0.65 µM
same,metabolism in plasma,[4],highly metabolized by esterases
same,metabolism in plasma,[5],highly metabolized by esterases
same,EC50,"human whole blood; 6 h, read-out: EC50-IFN-alpha, 6 h Incubation, Donor 1, whole blood",1.17 µM
same,EC50,"human whole blood; 6 h, read-out: EC50-IFN-alpha, 6 h Incubation, Donor 2, whole blood",1.84 µM
same,EC50,"human whole blood; 6 h, read-out: EC50-IFN-alpha, 6 h Incubation, Donor 3, whole blood",1.94 µM
same,EC50,"human whole blood; 6 h, read-out: EC50-IL-6, 6 h Incubation, Donor 1, whole blood",0.94 µM
same,EC50,"human whole blood; 6 h, read-out: EC50-IL-6, 6 h Incubation, Donor 2, whole blood",0.63 µM
same,EC50,"human whole blood; 6 h, read-out: EC50-IL-6, 6 h Incubation, Donor 3, whole blood",0.52 µM
same,EC50,"human whole blood; 6 h, read-out: EC50-IL-12, 6 h Incubation, Donor 1, whole blood, IL-12p40",2.31 µM
same,EC50,"human whole blood; 6 h, read-out: EC50-IL-12, 6 h Incubation, Donor 2, whole blood, IL-12p40",2.09 µM
same,EC50,"human whole blood; 6 h, read-out: EC50-IL-12, 6 h Incubation, Donor 3, whole blood, IL-12p40",3.43 µM
same,EC50,"human whole blood; 24 h, read-out: EC50-IFN-alpha, 24 h Incubation, Donor 1",0.24 µM
same,EC50,"human whole blood; 24 h, read-out: EC50-IFN-alpha, 24 h Incubation, Donor 2",0.47 µM
same,EC50,"human whole blood; 24 h, read-out: EC50-IFN-alpha, 24 h Incubation, Donor 3",0.35 µM
same,EC50,"human whole blood; 24 h, read-out: EC50-IL-6, 24 h Incubation, Donor 1",0.52 µM
same,EC50,"human whole blood; 24 h, read-out: EC50-IL-6, 24 h Incubation, Donor 2",0.32 µM
same,EC50,"human whole blood; 24 h, read-out: EC50-IL-6, 24 h Incubation, Donor 3",0.29 µM
same,EC50,"human whole blood; 24 h, read-out: EC50-IL-10, 24 h Incubation, Donor 1",1.29 µM
same,EC50,"human whole blood; 24 h, read-out: EC50-IL-10, 24 h Incubation, Donor 2",0.86 µM
same,EC50,"human whole blood; 24 h, read-out: EC50-IL-10, 24 h Incubation, Donor 3",2.28 µM
same,EC50,"human whole blood; 24 h, whole blood, read-out: EC50-IL-12p40, 24 h Incubation, Donor 1",2.87 µM
same,EC50,"human whole blood; 24 h, whole blood, read-out: EC50-IL-12p40, 24 h Incubation, Donor 2",2.74 µM
same,EC50,"human whole blood; 24 h, whole blood, read-out: EC50-IL-12p40, 24 h Incubation, Donor 3",4.03 µM
same,local side effects,[6],No local side effects
same,Intracellular Concentration % of total,RAW.264 cells; Incubation 1 hours,5.50 % of total
same,Intracellular Concentration % of total,RAW.264 cells; Incubation 6 hours,4.27 % of total
same,Intracellular Concentration % of total,RAW.264 cells; Incubation 16 hours,1.53 % of total
same,degradation,[7]; T>25° C. and in the presence of light,rapid degradation
same,degradation of solid samples,"[7]; batch CH730/16/8g, solid",almost completely degraded after few days
same,stability,[7]; room temperature and/or in the presence of light,not a stable compound
"COCCOc1nc(N)c2[nH]c(=O)n(Cc3ccc(C(=O)O)cc3)c2n1 [Free pharmacophore, reference compound]",EC50,[3]; read-out: EC 50 TNF-alpha,0.707 µM
"CC(C)Cn1cnc2c(N)nc3ccccc3c21 [Imiquimod, reference compound]",potency as TLR7 agonist,[3],weakest induction of IL-6 and TNF-alpha
same,IL-6 induction,human PBMCs,only active in inducing IL-6 at the highest concentration (10 uM)
same,"CD40 expression on B cells (MFI, words)",HLA-DR+/CD20+ B cells,increased expression in all three donors
same,"CD80 expression in mDCs (MFI, words)",[8],weak expression of CD80 in donor 1 and 2
same,serum IL-12,[9],elevated levels of IL-12
same,serum IL-6 and TNF-alpha,MB49 cells,under the detection levels
same,"cell numbers, real-time cell analysis",[10],reduced cell numbers
same,toxicity,"[11]; intravesical, day 2 and 5",No signs of toxicity
same,Number of rat bladders Tumor free,[11]; of 14 per group,5
same,Number of rat bladders with pT2 Tumor,[11]; of 14 per group,9
